Source: ChEMBL document CHEMBL2163329, “Tuberculosis: the drug development pipeline at a glance” (Eur J Med Chem, 2012)
Converted amounts (≈) assume the structure as drawn.

What was measured:
[1] = system: Mycobacterium tuberculosis; test: Antimycobacterial activity against Mycobacterium tuberculosis infected in macrophages assessed as bacterial growth inhibition at 4 ug/mL; assay type: functional; settings: read-out: GI
[2] = Cmax in human at 400 mg, po; assay type: ADME, organism-based; set-up: dose 400 mg, route oral; settings: in vivo
[3] = system: Homo sapiens; test: (§1) Tmax in human at 400 mg, po; assay type: ADME, organism-based; settings: in vivo
[4] = system: Mycobacterium tuberculosis; test: Antimycobacterial activity against Mycobacterium tuberculosis H37Rv; assay type: functional
[5] = AUC in human at 400 mg, po; assay type: ADME, organism-based; settings: plasma
[6] = Bioavailability in human; assay type: ADME, organism-based; settings: in vivo
[7] = system: Mycobacterium tuberculosis; test: Antimycobacterial activity against Mycobacterium tuberculosis infected in human assessed as log reduction of bacterial count at 400 mg, qd measured up to 2 days; assay type: functional
[8] = system: Mycolicibacterium smegmatis; test: Antimycobacterial activity against Mycobacterium smegmatis; assay type: functional
[9] = system: Mycobacterium tuberculosis; test: Antimycobacterial activity against Mycobacterium tuberculosis; assay type: functional
[10] = system: Mycobacterium tuberculosis; test: Antimycobacterial activity against Mycobacterium tuberculosis infected in mouse administered as qd; assay type: functional
[11] = system: Mycobacterium tuberculosis; test: Antimycobacterial activity against Mycobacterium tuberculosis infected in human assessed as log reduction of bacterial count at 200 to 1200 mg; assay type: functional
[12] = system: Mycobacterium tuberculosis; test: Antimycobacterial activity against drug-sensitive Mycobacterium tuberculosis; assay type: functional
[13] = Cmax in human at 50 to 1500 mg, po; assay type: ADME, organism-based; settings: in vivo
[14] = Tmax in human at 50 to 1500 mg, po; assay type: ADME, organism-based; settings: in vivo
[15] = AUC in human at 50 to 1500 mg, po; assay type: ADME, organism-based; settings: plasma
[16] = system: Mycobacterium tuberculosis; test: Antimycobacterial activity against Mycobacterium tuberculosis infected in human assessed as log reduction of bacterial count at 400 mg, qd measured up to 7 days; assay type: functional
[17] = system: Mycobacterium tuberculosis; test: Antimycobacterial activity against Mycobacterium tuberculosis infected in human assessed as log reduction of bacterial count at 300 mg, qd measured up to 2 days; assay type: functional
[18] = system: Mycobacterium tuberculosis; test: Antimycobacterial activity against Mycobacterium tuberculosis clinical isolate; assay type: functional
[19] = as §1; assay type: ADME, organism-based; settings: in vivo, 400 mg
[20] = Half life in human at 400 mg, po; assay type: ADME, organism-based; settings: in vivo
[21] = Cmax in Mycobacterium tuberculosis H37Rv infected BALB/c mouse at 37.5 to 300 mg/kg, po administered 6 times per week for 4 weeks; assay type: ADME, organism-based; set-up: dose 37.5-300 mg/kg, route oral; settings: in vivo
[22] = AUC in Mycobacterium tuberculosis H37Rv infected BALB/c mouse at 37.5 to 300 mg/kg, po administered 6 times per week for 4 weeks; assay type: ADME, organism-based; set-up: dose 37.5-300 mg/kg, route oral; settings: plasma
[23] = system: Mycobacterium tuberculosis; test: Antimycobacterial activity against Mycobacterium tuberculosis H37Rv infected in BALB/c mouse assessed as log reduction of CFU in spleen at 300 mg/kg, po administered 6 times per week for 4 weeks; assay type: functional
[24] = system: Mycobacterium tuberculosis; test: Antimycobacterial activity against Mycobacterium tuberculosis H37Rv infected in BALB/c mouse assessed as log reduction of CFU in lung at 300 mg/kg, po administered 6 times per week for 4 weeks; assay type: functional
[25] = Bioavailability in human at 50 mg; assay type: ADME, organism-based; settings: in vivo
[26] = Bioavailability in human at 1200 mg; assay type: ADME, organism-based; settings: in vivo
[27] = AUC in mouse at 100 mg/kg; assay type: ADME, organism-based; set-up: dose 100 mg/kg; settings: plasma
[28] = Cmax in human at 10 mg, po; assay type: ADME, organism-based; set-up: dose 10 mg, route oral; settings: in vivo
[29] = AUC at steady state (0 to 24 hrs) in human at 150 mg, po qd for 14 days; assay type: ADME, organism-based; set-up: dose 150 mg, time < 24 hr, route oral; settings: plasma
[30] = AUC at steady state (0 to 24 hrs) in human at 50 mg, po qd for 14 days; assay type: ADME, organism-based; set-up: dose 50 mg, time < 24 hr, route oral; settings: plasma
[31] = AUC at steady state (0 to 24 hrs) in human at 400 mg, po qd for 14 days; assay type: ADME, organism-based; set-up: dose 400 mg, time < 24 hr, route oral; settings: plasma
[32] = system: Mycobacterium tuberculosis; test: Ratio of levofloxacin MIC to compound MIC for Mycobacterium tuberculosis; assay type: functional
[33] = AUC (0 to infinity) in mouse serum at 100 mg/kg; assay type: ADME, organism-based; set-up: time infinity, dose 100 mg/kg
[34] = Cmax in mouse serum at 100 mg/kg; assay type: ADME, organism-based; set-up: dose 100 mg/kg
[35] = system: Mycobacterium tuberculosis; test: Antimycobacterial activity against Mycobacterium tuberculosis infected in mouse assessed as log reduction of CFU in lung at 100 mg/kg; assay type: functional
[36] = AUC (0 to 24 hrs) in monkey at 5 mg/kg; assay type: ADME, organism-based, Macaca mulatta; set-up: time < 24 hr, dose 5 mg/kg; settings: rhesus monkey, plasma
[37] = Half life in mouse lung at 100 mg/kg; assay type: ADME, organism-based; set-up: dose 100 mg/kg
[38] = Cmax in monkey at 5 mg/kg; assay type: ADME, organism-based, Macaca mulatta; set-up: dose 5 mg/kg; settings: rhesus monkey, in vivo
[39] = Half life in mouse serum at 100 mg/kg; assay type: ADME, organism-based; set-up: dose 100 mg/kg
[40] = system: Mycobacterium tuberculosis; test: Ratio of moxifloxacin MIC to compound MIC for Mycobacterium tuberculosis; assay type: functional
[41] = system: Mycobacterium tuberculosis; test: Ratio of gatifloxacin MIC to compound MIC for Mycobacterium tuberculosis; assay type: functional
[42] = AUC in Mycobacterium tuberculosis infected mouse at 2.5 mg/kg; assay type: ADME, organism-based; set-up: dose 2.5 mg/kg; settings: plasma
[43] = Tmax in smear positive tuberculosis patient; assay type: ADME, organism-based; settings: human, in vivo
[44] = Tmax in Mycobacterium tuberculosis infected mouse at 2.5 mg/kg; assay type: ADME, organism-based; set-up: dose 2.5 mg/kg; settings: in vivo
[45] = system: Mycobacterium tuberculosis; test: Antimycobacterial activity against Mycobacterium tuberculosis infected in human assessed as log reduction of bacterial count at 100 to 400 mg, qd for 14 days; assay type: functional
[46] = Half life in human up to 300 mg, po; assay type: ADME, organism-based; settings: in vivo
[47] = Oral bioavailability in mouse at 10 mg/kg; assay type: ADME, organism-based; settings: in vivo
[48] = system: Mycobacterium tuberculosis; test: Antimycobacterial activity against Mycobacterium tuberculosis infected in mouse assessed as log reduction of CFU in lung at 10 to 25 mg/kg after 30 days; assay type: functional; settings: dose mg/kg 10-25
[49] = system: Mycobacterium tuberculosis; test: Antimycobacterial activity against Mycobacterium tuberculosis infected in mouse assessed as log reduction of CFU in spleen at 10 to 25 mg/kg after 30 days; assay type: functional; settings: dose mg/kg 10-25

`OC1CCN(C2CCN(CC34CC5CC(CC(C5)C3)C4)CC2)CC1` showed an inhibition of growth at 4 µg/mL [1] of 90%.
For `COc1c(N2C[C@@H]3CCCN[C@@H]3C2)c(F)cc2c(=O)c(C(=O)O)cn(C3CC3)c12` [MOXIFLOXACIN], the Cmax [2] was 4300 ng/mL, the Tmax [3] was 1 h and the MIC [4] was 0.18 µg/mL (≈ 0.448 µM). It also gave an AUC [5] of 39000 ng·h/mL, a bioavailability [6] of 90% and a log10CFU/ml/day [7] of 0.33.
For `C[C@@H]1COC2(CCN(c3nc(=O)c4cc(C(F)(F)F)cc([N+](=O)[O-])c4s3)CC2)O1`, the MIC [8] was 0.004 µg/mL (≈ 0.00927 µM) and the MIC [9] was 0.001 µg/mL (≈ 0.00232 µM).
Compound `CC(=O)NC[C@H]1CN(c2ccc(N3CCOCC3)c(F)c2)C(=O)O1` [LINEZOLID] has an MIC [9] of 0.125 µg/mL (≈ 0.371 µM).
In the case of `O=[N+]([O-])c1cn2c(n1)OC[C@@H](OCc1ccc(OC(F)(F)F)cc1)C2` [PRETOMANID], the MBC [10] is reported as 100 mg/kg, the minimal effective dose ([10]; Mycobacterium tuberculosis, read-out: MED) is reported as 12.5 mg/kg and the log10CFU/ml/day [11] is reported as 0.1. The MIC [4] was 0.039 µg/mL (≈ 0.109 µM), the MIC [12] was 0.06 µg/mL and the Cmax [13] was 300 ng/mL. The Tmax [14] was 4 h and the AUC [15] was 7500 ng·h/mL.
Work on `NNC(=O)c1ccncc1` [ISONIAZID] yielded a log10CFU/ml [16] of 1.88 and a log10CFU/ml/day [17] of 0.67.
With `CC(=O)NC[C@H]1CN(c2ccc(N3CCSCC3)c(F)c2)C(=O)O1` [SUTEZOLID] the MIC [12] was 0.03 µg/mL.
Compound `COc1c(N2CCNC(C)C2)c(F)cc2c(=O)c(C(=O)O)cn(C3CC3)c12` (stereo not given) [GATIFLOXACIN] has an MIC90 [18] of 0.007 µg/mL (≈ 0.0186 µM), a Cmax [2] of 3400 ng/mL and a Tmax [19] of 1.5 h. It also gave an MIC [4] of 0.12 µg/mL (≈ 0.32 µM), an AUC [5] of 30000 ng·h/mL and a half-life [20] of 6.5 h. It also gave a log10CFU/ml/day [7] of 0.35.
With `C[C@H]1COC2(CCN(c3nc(=O)c4cc(C(F)(F)F)cc([N+](=O)[O-])c4s3)CC2)O1` [BTZ-043] the MIC [8] was 0.004 µg/mL (≈ 0.00927 µM), the Cmax [21] was 2000 ng/mL and the AUC at 672 h [22] was 4600 ng·h/mL. The log10cfu [23] was 2, the MIC [9] was 0.001 µg/mL (≈ 0.00232 µM) and the log10cfu [24] was 1.
Work on `CC(=O)NC[C@H]1CN(c2ccc([S+](C)[O-])cc2)C(=O)O1` (stereo not given in full) yielded an MIC [9] of 0.3 µg/mL (≈ 1.01 µM).
`CO[C@H]1/C=C/O[C@@]2(C)Oc3c(C)c(O)c4c(O)c(c(/C=N/N5CCN(C)CC5)c(O)c4c3C2=O)NC(=O)/C(C)=C\C=C\[C@H](C)[C@H](O)[C@@H](C)[C@@H](O)[C@@H](C)[C@H](OC(C)=O)[C@@H]1C` [RIFAMPIN] showed a log10CFU/ml [16] of 1.7.
`O=C([C@@H](O)CO)N1CC=C(c2c(F)cc(N3C[C@H](COc4ccon4)OC3=O)cc2F)CC1` [POSIZOLID] gave a bioavailability [25] of 100% and a bioavailability [26] of under 30%.
Work on `CC(=O)NC[C@H]1CN(c2ccc(C(C)=O)cc2)C(=O)O1` [DUP-721] yielded an MIC [9] of 0.3 µg/mL (≈ 1.09 µM).
With `N#CCC(=O)N1CCC(c2nc(-c3cccs3)no2)CC1` the AUC [27] was 82000 ng·h/mL.
`COc1nc2ccc(Br)cc2cc1[C@@H](c1ccccc1)[C@@](O)(CCN(C)C)c1cccc2ccccc12` [BEDAQUILINE] gave a Cmax [28] of 70 ng/mL, an MIC [18] of 0.03 µg/mL (≈ 0.054 µM) and a log10CFU/ml [16] of 0.77. It also gave a Cmax [2] of 9000 ng/mL, an AUC at 24 h [29] of 24000 ng·h/mL and an MIC99 [4] of 0.03 µg/mL (≈ 0.054 µM). It also gave an MIC [12] of 0.003 µg/mL, an AUC at 24 h [30] of 7900 ng·h/mL and an AUC at 24 h [31] of 52000 ng·h/mL.
For `COc1c(N2CC3(CC3)[C@](C)(N)C2)c(F)cc2c(=O)c(C(=O)O)cn([C@@H]3C[C@@H]3F)c12`, the Ratio [32] was 4, the AUC(0-inf) [33] was 14700 ng·h/mL and the Cmax [34] was 10300 ng/mL. The log10cfu [35] was 2, the AUC(0-t) at 24 h [36] was 16900 ng·h/mL and the MIC90 [12] was 0.06 µg/mL (≈ 0.143 µM). The half-life [37] was 1.93 h, the Cmax [38] was 2200 ng/mL and the half-life [39] was 1.51 h. For the same compound, the Ratio [40] was 4 and the Ratio [41] was 4.
With `C[C@]1(COc2ccc(N3CCC(Oc4ccc(OC(F)(F)F)cc4)CC3)cc2)Cn2cc([N+](=O)[O-])nc2O1` the AUC [42] was 4130 ng·h/mL, the Tmax [43] was 4 h and the Tmax [44] was 6 h. The MIC [12] was 0.006 µg/mL and the log10CFU/ml/day [45] was 0.04.
`CC(C)=CCC/C(C)=C/CNCCNC1C2CC3CC(C2)CC1C3` (stereo not given) [SQ109] showed a half-life [46] of 61 h, a bioavailability [47] of 8% and a log10cfu [48] of 1.5. The MIC [12] was 0.63 µM and the log10cfu [49] was 1.5.
